Where two headings read alike, the source gives them in different places.
Tests used:
[1] = test system: P. falciparum T618Q gatekeeper mutant line; experiment: Hypoxanthine incorporation growth inhibition assay, asexual blood stage, T618Q gatekeeper mutant line; assay type: cell-based, Plasmodium falciparum; details: for sensitivity of gatekeeper mutant line compared with wild type (control drugs): tested in parallel on both parasite lines; for EC50 / EC90: T618Q clonal line asexual blood stage growth, 72 h, +/- s.e.m.
Experimental: We determined that a 72 h P. falciparum (clone 3D7A; obtained from Lisa Ranford Cartwright, University of Edinburgh) growth inhibition assay was necessary for full inhibition to manifest itself and that this is due, most likely to a schizont-specific action rather than a delayed death phenotype as observed for some antibiotic macrocycles. Hypoxanthine incorporation assays[36] were performed on P. falciparum asexual blood stage parasites (wild-type 3D7 or T618Q gatekeeper mutant) to determine EC50 values for test compounds. Mixed staged parasites (primarily rings) were added to 96 well plates containing compounds at concentrations of 50 μM–0.3 nM. [^3H]-Hypoxanthine was added after 48 h to a final concentration of 0.2 μCi. The radioactivity of the labeled hypoxanthine incorporated into the parasite nucleic acids over 24 h was determined relative to untreated controls using a Wallac 1450 Microbeta scintillation counter (Perkin-Elmer). Assays were carried out in triplicate at least twice.

P. falciparum 3D7 = experiment: Hypoxanthine incorporation growth inhibition assay, asexual blood stage, wild-type 3D7; assay type: cell-based, Plasmodium falciparum; details: for EC50: read-out: EC50 WT
Experimental: Hypoxanthine incorporation assays[36] were performed on P. falciparum asexual blood stage parasites (wild-type 3D7 or T618Q gatekeeper mutant) to determine EC50 values for test compounds. Mixed staged parasites (primarily rings) were added to 96 well plates containing compounds at concentrations of 50 μM–0.3 nM. […] Assays were carried out in triplicate at least twice.

[2] = Stability in human liver microsomes
Experimental: (§1) Compound mlm hlm mLogD PAMPA HepG2 name (%rem) (%rem) (nm/s) (IC50 µM)
(§2) Supplementary Table 2. Compound Properties. MLM, HLM, mLogD and PAMPA . mlm (%rem): % of compound remaining after 30 minutes’ incubation with mouse liver microsomes; hlm (%rem): % of compound remaining after 40 minutes’ incubation with human liver microsomes; mLogD: measured LogD at pH 7.4; PAMPA: parallel artificial membrane permeability assay; HepG2: Cytotoxicity assay using HepG2 cells; n.t.: not tested.

PfPKG = PfPKG (Plasmodium falciparum, UniProt Q8I719); experiment: Microfluidic mobility shift kinase assay, recombinant PfPKG wild type; details: read-out: IC50 WT; recombinant full length 6His-tagged PfPKG; ATP at KM (20 µM); +/- s.e.m.
Experimental: (§3) Full length PfPKG (NCBI accession code XP_001348520) with native codon usage was cloned into the pTrcHisC plasmid (Life Technologies) that includes an N-terminal His-tag as described previously[8]. […] Recombinant proteins were generated and purified using a protocol based on that described previously[8]. […] 500 ml cultures in LB Rich Broth (containing 50 μg/ml carbenicillin and 34 μg/ml chloramphenicol) were grown in a shaking incubator at 37 °C until reaching an optical density (O.D.) of 0.6–0.7. The temperature was reduced to 16 °C before induction of expression with 1 mM IPTG. Incubation at 16 °C was continued overnight.
(§4) The cultures were harvested by centrifugation at 4000×g at 4 °C for 30 min, the supernatant removed and the pellet stored at −80 °C for in excess of 1 h. The PKGs were purified via the histidine tag on HiTrap TALON (cobalt) columns (GE Healthcare) connected to an AKTA-FPLC as per the manufacturer's instruction. Fractions were analyzed by SDS-PAGE and the main peak concentrated on 10 kDa MWCO concentrators (Amicon). Purified proteins were stored in 50% glycerol at −80 °C in single use aliquots. The final buffer composition of the purified product was: 50 mM Tris/HCl pH 7.5, 0.1 mM EGTA, 150 mM NaCl, 0.1% β-mercaptoethanol, 50% glycerol, 0.03% Brij-35, 1 mM benzamidine and 0.2 mM PMSF.
(§5) IC50 values were determined for test compounds using a microfluidic mobility shift assay. Briefly, compounds were prepared over a 10-well ½ log dilution series in dimethyl sulfoxide (DMSO) in duplicate in 50 μl volumes using 384-well polypropylene U-bottomed plates (Thermo Scientific, UK). The plates contained positive/no inhibitor (DMSO only) and negative (no enzyme) controls in columns 1, 2, and 23, 24. […] Samples were pre-incubated at room temperature for 30 min and reactions were initiated by addition of 25 μl ATP mix (10 mM MgCl2 and ATP, at KM of the enzyme under test [20 µM PfPKG and 90 µM PfPKG T618Q], in water). Positive controls were complete reaction mixtures with 10% DMSO and negative controls were reaction mixtures with 10% DMSO but lacking enzyme. Reactions were allowed to proceed for 30 mins at room temperature, corresponding to conversion of approximately 10% of the substrate in the DMSO controls. Reactions were terminated by addition of 50 µl stop solution (25 mM EDTA in water). Samples were analyzed by electrophoretic separation of substrate and product peaks and fluorescence detection using a Caliper Lab Chip EZ reader. (Perkin Elmer, Waltham MA) with 0.2 s sip time, downstream voltage 500 V, upstream voltage 1950 V and pressure 0.5 to 1.5 psi. Substrate and product peak heights were measured and the ratio of the product peak height divided by the sum of the product and substrate peaks were determined using EZ reader software (version 3.0.265.0) to obtain percentage conversion (P) values. […] Liquid handling stages were conducted on a Biomek robotic liquid handler (Beckman Coulter).

physchem = details: pH 7.4
Experimental: as §1, §2

PfPKG T618Q = PfPKG T618Q (Plasmodium falciparum, UniProt Q8I719, T618Q); experiment: Microfluidic mobility shift kinase assay, recombinant PfPKG T618Q gatekeeper mutant; details: read-out: IC50 T618Q; recombinant PfPKG T618Q; ATP at KM (90 µM); +/- s.e.m.
Experimental: as §3, §4, §5

[3] = Stability in mouse liver microsomes
Experimental: as §1, §2

[4] = Parallel artificial membrane permeability assay (PAMPA); assay type: in vitro ADME
Excerpt: Compound mlm hlm mLogD PAMPA HepG2
name (%rem) (%rem) (nm/s) (IC50 µM)
Supplementary Table 2. Compound Properties. MLM, HLM, mLogD and PAMPA . mlm

HepG2 cells = experiment: Cytotoxicity assay using HepG2 cells
Experimental: as §1, §2

P. chabaudi (AS) = experiment: Synchronous P. chabaudi AS model in BALB/c mice; assay type: in vivo, Plasmodium chabaudi; details: single daily oral dose 50 mg/kg just prior to schizogony, 4 days
Experimental: Similar experiments were performed using P. chabaudi AS (from David Walliker, University of Edinburgh) with the following modifications. To allow dosing to be carried out more conveniently during the day, reversal of the light/dark exposure of mice for 2 weeks prior to the experiment was used to switch schizogony from midnight to noon each day. Mice were dosed at different time points in an attempt to have maximal coverage at the point of schizogony. All animal work protocols carried out at LSHTM were approved and licensed by the United Kingdom Home Office as governed by law under the Animals (Scientific Procedures) Act of 1986, in strict accordance with the Code of Practice Part 1 for the housing and care of animals (21 March 2005), available at http://www.homeoffice.gov.uk/science-research/animal-research/

[5] = Plasma levels in satellite groups of mice, P. berghei experiment; assay type: in vivo, mouse; details: mice, oral 25 mg/kg, P. berghei experiment
Excerpt: Supplementary Figure 4. Plasma concentrations over time in rodent malaria models. […] Error bars show the standard deviation. (1 picture or pasted object on this page, not shown here)

[6] = test system: P. falciparum (NF54) gametocytes; experiment: Standard membrane feeding assay (SMFA), gametocytes fed to Anopheles stephensi; assay type: cell-based, Plasmodium falciparum; details: gametocytes pre-incubated 24 h, oocysts counted day 7 post-feed; read-out: IC50 for reduction of the intensity of infection (oocysts)
Experimental: Mature P. falciparum (NF54) gametocytes (14 day culture, 0.3–0.5% gametocytes, 2% haematocrit) were obtained from an automated tipper system and incubated with compound for 24 h as previously described. Anopheles stephensi (Sind-Kasur Nijmegen strain[39] were reared at 30 °C and 70–80% humidity, while exposed to a 12/12 h day/night cycle. On the day of feeding, the gametocyte culture was adjusted to 50% hematocrit with human red blood cells and human serum and fed to 3–5 day old mosquitoes using a glass membrane mini-feeder system containing 0.35 ml of the P. falciparum culture/compound mix[40]. Unfed and partially fed mosquitoes were removed after feeding and blood fed females were maintained at 26 °C and 70–80% humidity. Up to 20 surviving mosquitoes were collected on day 7 post-infection and oocysts were visualized using a 1% merchurochrome solution and quantified by microscopy. IC50 values were determined by logistic regression using Maximum Likelihood Estimation to find best fit[41].

[7] = Plasmodium falciparum, 3D7, 72 h, 3D7 asexual blood stage growth, 72 h, +/- s.e.m.
[8] = 3D7 asexual blood stage growth, 72 h, +/- s.e.m.

Sequence of PfPKG (Q8I719 whole entry): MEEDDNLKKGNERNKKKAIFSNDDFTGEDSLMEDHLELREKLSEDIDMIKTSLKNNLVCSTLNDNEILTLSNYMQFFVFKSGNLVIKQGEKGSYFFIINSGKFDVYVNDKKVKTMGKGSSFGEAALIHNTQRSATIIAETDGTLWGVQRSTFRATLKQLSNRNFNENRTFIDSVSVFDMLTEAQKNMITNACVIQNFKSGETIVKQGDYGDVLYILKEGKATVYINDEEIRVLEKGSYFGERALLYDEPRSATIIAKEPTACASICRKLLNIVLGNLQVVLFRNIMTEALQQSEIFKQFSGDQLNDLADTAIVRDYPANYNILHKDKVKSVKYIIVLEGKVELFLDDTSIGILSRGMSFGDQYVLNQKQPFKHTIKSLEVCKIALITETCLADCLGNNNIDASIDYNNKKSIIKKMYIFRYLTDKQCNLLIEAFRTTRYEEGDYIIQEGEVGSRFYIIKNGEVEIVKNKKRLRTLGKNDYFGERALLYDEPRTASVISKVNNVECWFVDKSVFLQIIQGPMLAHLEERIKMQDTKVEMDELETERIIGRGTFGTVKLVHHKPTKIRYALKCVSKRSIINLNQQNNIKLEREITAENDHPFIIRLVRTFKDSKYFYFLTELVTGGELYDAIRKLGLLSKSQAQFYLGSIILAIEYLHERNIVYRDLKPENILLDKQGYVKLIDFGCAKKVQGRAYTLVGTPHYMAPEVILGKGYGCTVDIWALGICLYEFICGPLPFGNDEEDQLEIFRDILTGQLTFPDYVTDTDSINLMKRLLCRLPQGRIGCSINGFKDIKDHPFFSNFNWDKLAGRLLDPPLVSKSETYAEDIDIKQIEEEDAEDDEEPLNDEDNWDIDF
Sequence of PfPKG T618Q (Q8I719 whole entry T618Q): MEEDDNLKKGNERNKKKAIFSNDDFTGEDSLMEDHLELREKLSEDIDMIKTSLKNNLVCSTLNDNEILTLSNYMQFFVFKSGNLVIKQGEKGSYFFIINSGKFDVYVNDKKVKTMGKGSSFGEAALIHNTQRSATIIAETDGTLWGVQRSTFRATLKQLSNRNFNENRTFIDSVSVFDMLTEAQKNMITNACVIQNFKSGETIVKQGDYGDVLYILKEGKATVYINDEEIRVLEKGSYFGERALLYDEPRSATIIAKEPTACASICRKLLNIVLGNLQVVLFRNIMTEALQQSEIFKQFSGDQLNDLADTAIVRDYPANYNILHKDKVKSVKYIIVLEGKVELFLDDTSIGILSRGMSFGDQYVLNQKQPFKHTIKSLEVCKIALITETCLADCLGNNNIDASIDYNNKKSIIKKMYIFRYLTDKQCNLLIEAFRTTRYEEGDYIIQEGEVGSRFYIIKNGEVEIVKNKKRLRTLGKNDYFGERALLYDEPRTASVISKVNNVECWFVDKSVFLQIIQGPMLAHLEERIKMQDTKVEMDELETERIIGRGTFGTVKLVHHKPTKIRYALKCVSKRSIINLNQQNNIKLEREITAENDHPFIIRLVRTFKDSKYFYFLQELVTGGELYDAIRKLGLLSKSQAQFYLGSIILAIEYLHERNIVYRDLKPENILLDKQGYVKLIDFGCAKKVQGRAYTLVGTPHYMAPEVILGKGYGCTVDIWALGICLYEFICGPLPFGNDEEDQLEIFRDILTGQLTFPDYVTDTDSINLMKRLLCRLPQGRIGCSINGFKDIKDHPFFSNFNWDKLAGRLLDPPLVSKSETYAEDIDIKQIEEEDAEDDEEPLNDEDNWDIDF

Structure (SMILES) | sensitivity of gatekeeper mutant line compared with wild type (control drugs) [1] | EC50 (P. falciparum 3D7; [7]) [nM] | EC50 (P. falciparum 3D7; Plasmodium falciparum, 3D7, 72 h) [nM] | hlm (%rem) ([2]; human, microsomes, 40 min) [%] | IC50 (PfPKG) [nM] | EC50 [1] [nM] | EC90 [1] [nM] | mLogD (physchem) | IC50 (PfPKG T618Q) [nM] | mlm (%rem) ([3]; mouse, microsomes, 0.5 h) [%] | PAMPA [4] [×10⁻⁶ cm/s] | EC90 (P. falciparum 3D7; [8]) [nM] | EC50 (P. falciparum 3D7; [8]) [nM] | hlm (%rem) ([2]; % of compound remaining after 40 minutes' incubation) [%] | IC50 (HepG2 cells; read-out: HepG2 (IC50 M), cytotoxicity) [nM] | mlm (%rem) ([3]; % of compound remaining after 30 minutes' incubation) [%] | IC50 (HepG2 cells) [nM] | reduction in blood stage parasitaemia (P. chabaudi (AS)) [%] | plasma half-life [5] [h] | IC50 [6] [nM]
C[C@@H]1CC[C@H]2[C@@H](C)C(=O)O[C@@H]3O[C@@]4(C)CC[C@@H]1[C@]32OO4 [Artemisinin, reference compound] | equivalent levels of inhibition of both parasite lines | 25.2 ± 1.5 | – | – | – | – | – | – | – | – | – | – | – | – | – | – | – | – | – | –
CCN(CC)CCCC(C)Nc1ccnc2cc(Cl)ccc12 (centres unmarked) [Chloroquine, reference compound] | equivalent levels of inhibition of both parasite lines | – | 16.2 ± 1.2 | – | – | – | – | – | – | – | – | – | – | – | – | – | – | – | – | –
Fc1ccc(-c2nc3ccccn3c2-c2ccnc(Nc3ccc(N4CCNCC4)cc3)n2)cc1 [ML2] | – | – | – | 100 | 1.71 | 140 | 956 | 3.1 | 1710 | 100 | 0 | 628 | 197 | – | – | – | – | – | – | –
CN(C)Cc1ccn2c(-c3ccnc(Nc4ccc(N5CCNCC5)cc4)n3)c(-c3ccc(F)cc3)nc2c1 [ML3] | – | – | – | – | 0.79 | 195 | 279 | 2.2 | 842 | – | 6.62 | 236 | 63.4 | 62 | 1900 | 89 | – | – | – | –
Cc1cn2c(-c3ccnc(Nc4ccc(N5CCNCC5)cc4)n3)c(-c3ccc(F)cc3)nc2cc1CN(C)C [ML4] | – | – | – | 31 | 0.45 | 107 | 186 | 2.8 | 231 | 84 | 3.71 | 107 | 25.3 | – | – | – | 1900 | 56.5 | 1.0 | 61.6
CN(C)Cc1ccn2c(-c3ccnc(N)n3)c(-c3cccc(S(C)(=O)=O)c3)nc2c1 [ML5] | – | – | – | 96 | 0.88 | 12700 | 61500 | 1.5 | > 100000 | 96 | 1.77 | 445 | 329 | – | – | – | > 20000 | – | – | –
CN(C)Cc1ccn2c(-c3ccnc(NCC4CC4)n3)c(-c3cccc(S(C)(=O)=O)c3)nc2c1 [ML6] | – | – | – | 72 | 0.13 | 1860 | 3490 | 2.3 | 52500 | 62 | 11.45 | 142 | 102 | – | – | – | > 20000 | – | – | –
CN(C)Cc1ccn2c(-c3ccnc(N)n3)c(-c3cccc(NS(C)(=O)=O)c3)nc2c1 [ML7] | – | – | – | 82 | 4.34 | 35100 | 60700 | 1.6 | > 100000 | 96 | 0.64 | 633 | 489 | – | – | – | > 20000 | – | – | –
CN(C)Cc1ccn2c(-c3ccnc(N)n3)c(-c3ccc(F)c(NS(C)(=O)=O)c3)nc2c1 [ML8] | – | – | – | 91 | 0.79 | 5570 | 31000 | 0.8 | 73700 | 97 | 0.2 | 182 | 148 | – | – | – | > 20000 | – | – | –
Cc1cn2c(-c3ccnc(N)n3)c(-c3ccc(F)c(NS(C)(=O)=O)c3)nc2cc1CN(C)C [ML9] | – | – | – | 86 | 1.19 | 6900 | 48300 | 1.6 | > 100000 | 81 | 1.08 | 158 | 105 | – | – | – | – | – | – | –
CCc1nc(N)nc(N)c1-c1ccc(Cl)cc1 [Pyrimethamine, reference compound] | resistant | 43.3 ± 5.9 | – | – | – | – | – | – | – | – | – | – | – | – | – | – | – | – | – | –
